Bridge positions count the residues as written; N and C are the ends. Square brackets hold non-standard residues; d marks the D form. Peptide text beside a SMILES is read from it. * marks the point of attachment. Tyr(3,5-I2) = N[C@@H](Cc1cc(I)c(O)c(I)c1)C(=O)O; Phe(4-CONH2) = NC(=O)c1ccc(C[C@H](N)C(=O)O)cc1; Phe(4-COOH) = N[C@@H](Cc1ccc(C(=O)O)cc1)C(=O)O; Bip = N[C@@H](Cc1ccc(-c2ccccc2)cc1)C(=O)O; Phe(3-Me) = Cc1cccc(C[C@H](N)C(=O)O)c1; Val(3-OH) = CC(C)(O)[C@H](N)C(=O)O; 3Pal = N[C@@H](Cc1cccnc1)C(=O)O; Cha = N[C@@H](CC1CCCCC1)C(=O)O; Cit = NC(=O)NCCC[C@H](N)C(=O)O; NMeL = CN[C@@H](CC(C)C)C(=O)O; dNle = CCCC[C@@H](N)C(=O)O; Carboxymethyl = O=C(O)C*; NMeA = CN[C@@H](C)C(=O)O; Orn = NCCC[C@H](N)C(=O)O; Dab = NCC[C@H](N)C(=O)O
target: T1, PE-labeled human PD-L1-Ig binding to Jurkat cell line over-expressing human PD-1 (Jurkat-PD-1) (Homo sapiens, UniProt Q15116); assay: Jurkat-PD-1 Cell Binding High-Content Screening Assay (CBA): Method 1; conditions: Jurkat-hPD-1 cells, PE-labeled PD-L1-Ig 20 nM final; read-out: Jurkat HPDL1 PD1 IC50 (uM) (Method 1)
T1 construct: expressed in transfected cells; host or cells: Jurkat
T1 sequence (Q15116 25-288): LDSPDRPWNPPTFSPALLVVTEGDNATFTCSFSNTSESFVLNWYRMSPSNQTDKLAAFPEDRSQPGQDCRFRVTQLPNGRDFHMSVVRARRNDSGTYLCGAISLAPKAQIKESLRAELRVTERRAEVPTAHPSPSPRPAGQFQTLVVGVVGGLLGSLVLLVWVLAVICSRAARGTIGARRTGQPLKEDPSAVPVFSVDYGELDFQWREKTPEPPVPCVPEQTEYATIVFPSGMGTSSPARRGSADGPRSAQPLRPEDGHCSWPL

**Q.** `CC(C)C[C@@H]1NC(=O)[C@H](Cc2c[nH]c3ccccc23)NC(=O)[C@H](CC(=O)O)NC(=O)[C@H](Cc2ccc(O)cc2)NC(=O)[C@H](Cc2ccccc2)NC(=O)CSC[C@@H](C(=O)NCC(N)=O)NC(=O)[C@H](CO)NC(=O)[C@H](C(C)C)NC(=O)[C@H](CC(C)C)NC(=O)[C@H](CCN)NC(=O)[C@@H](CC(C)C)NC(=O)[C@H](C)N(C)C(=O)[C@H](CCCNC(N)=O)NC(=O)[C@H](Cc2ccc(-c3ccccc3)cc2)NC1=O` [Compound 1512] ({CH2CO}-FYDWL[Bip][Cit][NMeA][dL][Dab]LVSCG-NH2; thioether N-14) was tested. Which IC50 did it give?
**A.** 0.02 µM

**Q.** `CC(C)C[C@@H]1NC(=O)[C@H](CCCNC(=N)N)NC(=O)[C@@H](Cc2ccccc2)NC(=O)[C@H](C)N(C)C(=O)[C@H](CCCNC(=N)N)NC(=O)[C@H](Cc2ccc(-c3ccccc3)cc2)NC(=O)[C@H](C(C)C)NC(=O)[C@H](Cc2c[nH]c3ccccc23)NC(=O)[C@H](CC(=O)O)NC(=O)[C@H](Cc2ccc(O)cc2)NC(=O)[C@H](CC(N)=O)NC(=O)CSC[C@@H](C(=O)NCC(N)=O)NC(=O)[C@H](CO)NC(=O)[C@H](C(C)C)NC1=O` [Compound 1032] ({CH2CO}-NYDWV[Bip]R[NMeA][dF]RLVSCG-NH2; thioether N-14) was tested. Which IC50 did it give?
**A.** 0.51 µM

**Q.** How did the IC50 turn out when `Cc1cccc(C[C@@H]2NC(=O)[C@H](CC(=O)O)NC(=O)[C@H](Cc3ccc(C(=O)O)cc3)NC(=O)[C@H](Cc3ccc(OCC(=O)O)cc3)NC(=O)CSC[C@@H](C(=O)N[C@@H](CC(=O)O)C(N)=O)NC(=O)[C@H](CO)NC(=O)[C@H](C(C)C)NC(=O)[C@H](CC(C)C)NC(=O)[C@H](CC(N)=O)NC(=O)[C@@H](CC(C)C)NC(=O)[C@H](C)N(C)C(=O)[C@H](C(C)C)NC(=O)[C@H](Cc3ccc(-c4ccccc4)cc3)NC(=O)[C@H](CC(C)C)NC2=O)c1` [Compound 1602] ({CH2CO}-Y(Carboxymethyl)[Phe(4-COOH)]D[Phe(3-Me)]L[Bip]V[NMeA][dL]NLVSCD-NH2; thioether N-14) was run?
**A.** 0.01 µM

**Q.** How did the IC50 turn out when `CCCC[C@H]1NC(=O)[C@H](C)N(C)C(=O)[C@H](CCCNC(=N)N)NC(=O)[C@H](Cc2ccc(-c3ccccc3)cc2)NC(=O)[C@H](C(C)C)NC(=O)[C@H](Cc2c[nH]c3ccccc23)NC(=O)[C@H](CC(=O)O)NC(=O)[C@H](Cc2ccc(O)cc2)NC(=O)[C@H](Cc2ccccc2)NC(=O)CSC[C@@H](C(=O)N[C@@H](C)C(N)=O)NC(=O)[C@H]([C@@H](C)O)NC(=O)[C@H](C(C)C)NC(=O)[C@H](CC(C)C)NC(=O)[C@H](CCCNC(=N)N)NC1=O` [Compound 1063] ({CH2CO}-FYDWV[Bip]R[NMeA][dNle]RLVTCA-NH2; thioether N-14) was run?
**A.** 0.06 µM

**Q.** For `CC(C)C[C@@H]1NC(=O)[C@H](Cc2c[nH]c3ccccc23)NC(=O)[C@H](CC(=O)O)NC(=O)[C@H](Cc2ccc(O)cc2)NC(=O)[C@H](Cc2ccccc2)NC(=O)CSC[C@@H](C(=O)NCC(N)=O)NC(=O)[C@H]([C@@H](C)O)NC(=O)[C@H](C(C)C)NC(=O)[C@H](CC(C)C)NC(=O)[C@H](CC(N)=O)NC(=O)[C@@H](CC(C)C)NC(=O)[C@H](C)N(C)C(=O)[C@H](C(C)C)NC(=O)[C@H](Cc2ccc(-c3ccccc3)cc2)NC1=O` [Compound 1466] ({CH2CO}-FYDWL[Bip]V[NMeA][dL]NLVTCG-NH2; thioether N-14), which IC50 is on record?
**A.** 0.02 µM

**Q.** For `CC(C)C[C@@H]1NC(=O)[C@H](CCN)NC(=O)[C@@H](CC(C)C)NC(=O)[C@H](C)N(C)C(=O)[C@H](CCCNC(=N)N)NC(=O)[C@H](Cc2ccc(-c3ccccc3)cc2)NC(=O)[C@H](C(C)C)NC(=O)[C@H](Cc2c[nH]c3ccccc23)NC(=O)[C@H](CC(=O)O)NC(=O)[C@H](Cc2ccc(O)cc2)NC(=O)[C@H](CC(N)=O)NC(=O)CSC[C@@H](C(=O)N[C@@H](C)C(N)=O)NC(=O)[C@H](CCCN)NC(=O)[C@H](C(C)C)NC1=O` [Compound 1242] ({CH2CO}-NYDWV[Bip]R[NMeA][dL][Dab]LV[Orn]CA-NH2; thioether N-14), which IC50 is on record?
**A.** 0.09 µM

**Q.** For `CC(C)C[C@@H]1NC(=O)[C@H](CCN)NC(=O)[C@@H](CC(C)C)NC(=O)[C@H](C)N(C)C(=O)[C@H](CCCNC(N)=O)NC(=O)[C@H](Cc2ccc(-c3ccccc3)cc2)NC(=O)[C@H](C(C)C)NC(=O)[C@H](Cc2c[nH]c3ccccc23)NC(=O)[C@H](CC(=O)O)NC(=O)[C@H](Cc2ccc(OCC(=O)O)cc2)NC(=O)[C@H](Cc2cccnc2)NC(=O)CSC[C@@H](C(=O)N[C@@H](C)C(N)=O)NC(=O)[C@H]([C@@H](C)O)NC(=O)[C@H](C(C)C)NC1=O` [Compound 1331] ({CH2CO}-[3Pal]Y(Carboxymethyl)DWV[Bip][Cit][NMeA][dL][Dab]LVTCA-NH2; thioether N-14), which IC50 is on record?
**A.** 0.01 µM

**Q.** How did the IC50 turn out when `Cc1cccc(C[C@@H]2NC(=O)[C@H](CC(=O)O)NC(=O)[C@H](Cc3ccc(O)cc3)NC(=O)[C@H](Cc3ccccc3)NC(=O)CSC[C@@H](C(=O)N[C@@H](C)C(N)=O)NC(=O)[C@H]([C@@H](C)O)NC(=O)[C@H](C(C)C)NC(=O)[C@H](CC(C)C)NC(=O)[C@H](CCCNC(=N)N)NC(=O)[C@@H](CC(C)C)NC(=O)[C@H](C)N(C)C(=O)[C@H](CCCNC(=N)N)NC(=O)[C@H](Cc3ccc(-c4ccccc4)cc3)NC(=O)[C@H](C(C)C)NC2=O)c1` [Compound 1125] ({CH2CO}-FYD[Phe(3-Me)]V[Bip]R[NMeA][dL]RLVTCA-NH2; thioether N-14) was run?
**A.** 0.05 µM

**Q.** How did the IC50 turn out when `CC(C)C[C@@H]1NC(=O)[C@H](CCN)NC(=O)[C@@H](CC(C)C)NC(=O)[C@H](C)N(C)C(=O)[C@H](CCCNC(N)=O)NC(=O)[C@H](Cc2ccc(-c3ccccc3)cc2)NC(=O)[C@H](C(C)C)NC(=O)[C@H](Cc2c[nH]c3ccccc23)NC(=O)[C@H](CC(=O)O)NC(=O)[C@H](Cc2ccc(C(=O)O)cc2)NC(=O)[C@H](Cc2cccnc2)NC(=O)CSC[C@@H](C(=O)N[C@@H](C)C(N)=O)NC(=O)[C@H]([C@@H](C)O)NC(=O)[C@H](C(C)C)NC1=O` [Compound 1332] ({CH2CO}-[3Pal][Phe(4-COOH)]DWV[Bip][Cit][NMeA][dL][Dab]LVTCA-NH2; thioether N-14) was run?
**A.** 0.03 µM

**Q.** How did the IC50 turn out when `Cc1cccc(C[C@@H]2NC(=O)[C@H](CC(=O)O)NC(=O)[C@H](Cc3ccc(OCC(=O)O)cc3)NC(=O)[C@H](CCN)NC(=O)CSC[C@@H](C(=O)N[C@@H](CO)C(N)=O)NC(=O)[C@H](CO)NC(=O)[C@H](C(C)(C)O)NC(=O)[C@H](CC3CCCCC3)NC(=O)[C@H](CCN)NC(=O)[C@@H](CC(C)C)NC(=O)[C@H](C)N(C)C(=O)[C@H](Cc3ccc(C(=O)O)cc3)NC(=O)[C@H](Cc3ccc(-c4ccccc4)cc3)NC(=O)[C@H](Cc3ccc(C(N)=O)cc3)NC2=O)c1` [Compound 2179] ({CH2CO}-[Dab]Y(Carboxymethyl)D[Phe(3-Me)][Phe(4-CONH2)][Bip][Phe(4-COOH)][NMeA][dL][Dab][Cha][Val(3-OH)]SCS-NH2; thioether N-14) was run?
**A.** 0.06 µM

**Q.** `CC(C)C[C@@H]1NC(=O)[C@H](CCCN)NC(=O)[C@@H](CC(C)C)NC(=O)[C@H](C)N(C)C(=O)[C@H](CCCNC(N)=O)NC(=O)[C@H](Cc2ccc(-c3ccccc3)cc2)NC(=O)[C@H](C(C)C)NC(=O)[C@H](Cc2c[nH]c3ccccc23)NC(=O)[C@H](CC(=O)O)NC(=O)[C@H](Cc2ccc(O)cc2)NC(=O)[C@H](CC(N)=O)NC(=O)CSC[C@@H](C(=O)N[C@@H](C)C(N)=O)NC(=O)[C@H]([C@@H](C)O)NC(=O)[C@H](C(C)C)NC1=O` [Compound 1234] ({CH2CO}-NYDWV[Bip][Cit][NMeA][dL][Orn]LVTCA-NH2; thioether N-14) was tested. Which IC50 did it give?
**A.** 0.03 µM

**Q.** Which IC50 does the source give for `CC(C)C[C@H]1NC(=O)[C@H](C)N(C)C(=O)[C@H](C(C)C)NC(=O)[C@H](Cc2ccc(-c3ccccc3)cc2)NC(=O)[C@H](C(C)C)NC(=O)[C@H](Cc2c[nH]c3ccccc23)NC(=O)[C@H](CC(=O)O)NC(=O)[C@H](Cc2ccc(O)cc2)NC(=O)[C@H](CC(N)=O)NC(=O)CSC[C@@H](C(=O)N[C@@H](C)C(N)=O)NC(=O)[C@H]([C@@H](C)O)NC(=O)[C@H](C(C)C)NC(=O)[C@H](CC2CCCCC2)NC(=O)[C@H](CCN)NC1=O` [Compound 1296] ({CH2CO}-NYDWV[Bip]V[NMeA][dL][Dab][Cha]VTCA-NH2; thioether N-14) here?
**A.** 0.01 µM

**Q.** How did the IC50 turn out when `CC(C)C[C@@H]1NC(=O)[C@H](CCCNC(=N)N)NC(=O)[C@@H](CC(C)C)NC(=O)[C@H](C)N(C)C(=O)[C@H](CCCNC(=N)N)NC(=O)[C@H](Cc2ccc(-c3ccccc3)cc2)NC(=O)[C@H](C(C)C)NC(=O)[C@H](Cc2c[nH]c3ccccc23)NC(=O)[C@H](CC(=O)O)NC(=O)[C@H](Cc2cc(I)c(O)c(I)c2)NC(=O)[C@H](Cc2ccccc2)NC(=O)CSC[C@@H](C(=O)N[C@@H](C)C(N)=O)NC(=O)[C@H]([C@@H](C)O)NC(=O)[C@H](C(C)C)NC1=O` [Compound 1093] ({CH2CO}-F[Tyr(3,5-I2)]DWV[Bip]R[NMeA][dL]RLVTCA-NH2; thioether N-14) was run?
**A.** 0.05 µM

**Q.** For `Cc1cccc(C[C@@H]2NC(=O)[C@H](CC(=O)O)NC(=O)[C@H](Cc3ccc(C(=O)O)cc3)NC(=O)[C@H](Cc3ccc(OCC(=O)O)cc3)NC(=O)CSC[C@@H](C(=O)N[C@@H](C)C(N)=O)NC(=O)[C@H](CO)NC(=O)[C@H](C(C)C)NC(=O)[C@H](CC(C)C)NC(=O)[C@H](CC(N)=O)NC(=O)[C@@H](C)NC(=O)[C@H](C)N(C)C(=O)[C@H](C(C)C)NC(=O)[C@H](Cc3ccc(-c4ccccc4)cc3)NC(=O)[C@H](CC(C)C)NC2=O)c1` [Compound 1579] ({CH2CO}-Y(Carboxymethyl)[Phe(4-COOH)]D[Phe(3-Me)]L[Bip]V[NMeA][dA]NLVSCA-NH2; thioether N-14), which IC50 is on record?
**A.** 0.02 µM

**Q.** For `CC(C)C[C@@H]1NC(=O)[C@H](CCN)NC(=O)[C@@H](CC(C)C)NC(=O)[C@H](CC(C)C)N(C)C(=O)[C@H](C(C)C)NC(=O)[C@H](Cc2ccc(-c3ccccc3)cc2)NC(=O)[C@H](C(C)C)NC(=O)[C@H](Cc2c[nH]c3ccccc23)NC(=O)[C@H](CC(=O)O)NC(=O)[C@H](Cc2ccc(O)cc2)NC(=O)[C@H](CC(N)=O)NC(=O)CSC[C@@H](C(=O)N[C@@H](C)C(N)=O)NC(=O)[C@H]([C@@H](C)O)NC(=O)[C@H](C(C)C)NC1=O` [Compound 1371] ({CH2CO}-NYDWV[Bip]V[NMeL][dL][Dab]LVTCA-NH2; thioether N-14), which IC50 is on record?
**A.** 0.03 µM

From patent US20240409585A1, “MACROCYCLIC IMMUNOMODULATORS” (priority 2021, published 2024)
